Here are results for one molecule from PMC9611727, “Optimization of a Novel Mandelamide-Derived Pyrrolopyrimidine Series of PERK Inhibitors” (Pharmaceutics, 2022).

Molecules are shown by their SMILES.

Assay type in all cases: cell-based
The subject of one assay is MV4-11 (FLT3-ITD). The experiment in a line: Cell viability assay, MV4-11. As to conditions: Homo sapiens. The procedure:
(§1) MV-4-11 and EoL-1 were plated at a density 20,000 cells/well in a 96 well plate. Cells were incubated with DMSO, 1 µM docetaxel, or an 8-pt, 2-fold dose response of 26 in quadruplicate. On day 3 and day 7, cells from DMSO-treated wells were counted and cells from all wells were split back so that the DMSO-treated wells matched the original seeding density. Cells were centrifuged in 96 well filter plates (Sigma) and resuspended in fresh compound-containing media.
(§2) On day 10, cells were incubated with alamarBlue™ HS Cell Viability Reagent (Invitogen) (10 µL of alamarBlue in a well of 90 µL media) for 2 hours at 37C/5% CO2. Fluorescence was measured on the EnVision Plate reader (Perkin Elmer) at an ex/em of 560/590 nm. Raw fluorescence values were normalized to positive and negative controls (DMSO, 1 µM docetaxel) to get a % viability. Replicates were averaged and dose responses were plotted on a 4 Parameter Logistic […]
(§3) MV-4-11 cells were plated in 6 well plates overnight in reduced serum media (IMDM + 0.5% FBS). The following day, compound or vehicle were added to the plate for a final DMSO concentration of 0.1% and incubated at 37 C for 2 hours.
(§4) Cells were washed with 1X PBS (Gibco 10010-023), and lysed in RIPA buffer with added inhibitors. Protein concentration was determined using a BCA assay (Thermo Scientific 23225). […]

Another assay has as its system MOLM-16 (FLT3wt). The experiment in a line: Cell viability assay, MOLM-16. Particulars: Homo sapiens, MOLM16.
The subject of another assay is p-ERK. The experiment in a line: FLT3-ITD downstream signaling, p-ERK western blot in MV4-11 cells. As to conditions: Homo sapiens, normalized to Crenolanib, read-out: pERK IC50. The method, then: as §1, §2, §3, §4

Regarding `Cc1nc(N)c2c(-c3ccc(NC(=O)[C@H](O)c4cccc(C(F)(F)F)c4)cc3C)cn(C)c2n1` [Compound 26], the IC50 in the assay on MV4-11 (FLT3-ITD) was 226 nM; in the assay with MOLM-16 (FLT3wt), greater than 10000 nM; with p-ERK it was 551 nM.
